From US10597388B2, “Pyridazinone herbicides” (FMC CORPORATION, priority 2014, dated 2020)
Read-outs that look alike come from different tables or passages of the source.

Tests used:
[1] = system: KCHSC, kochia (Kochia scoparia); assay: Test F mixtures with commercial herbicides, Post- or Pre-emergence; format: in vivo; conditions: Rate 62 g a.i./ha, scale 0-100
Procedure: (§1) This test evaluated the effect of mixtures of Compound 1 or Compound 2 with various commercial herbicides on multiple plant species. Seeds of multiple plant species selected were planted into Sandy Loam soil and treated either Post-emergence or Pre-emergence with test chemicals formulated in a non-phytotoxic solvent mixture. Plants were grown in a greenhouse using supplemental lighting to maintain a photoperiod of approximately 16 h; daytime and nighttime temperatures were approximately 24-30 and 19-21° C., respectively. Balanced fertilizer was applied through the watering system. Treated plants and controls were maintained in a greenhouse for 20 d, after which time all species were compared to controls and visually evaluated. Plant response ratings summarized in Tables F1 through F4 and are based on a scale of 0 to 100 where 0 is no effect and 100 is complete control. A dash (-) response means no test result. Application rates (i.e. “Rate”) are expressed in grams of active ingredient per hectare (g a.i./ha). In the following tables KCHSC is kochia (Kochia scoparia), LOLMU in Italian Ryegrass (Lolium multiflorum), AMBEL is common ragweed (Ambrosia elatior), ECHCG is barnyardgrass (Echinochloa crus-galli), SETVI is giant foxtail (Setaria faberii), AMARE is redroot pigweed (Amaranthus retroflexus), ALOMY is blackgrass (Alopecurus myosuroides) and GALAP is galium (Galium aparine). “Obsd.” is observed effect. “Exp.” is expected effect calculated from Colby's Equation.
(§2) Colby's Equation was used to determine the herbicidal effects expected from the mixtures. Colby's Equation (Colby, S. R. “Calculating Synergistic and Antagonistic Responses of Herbicide Combinations,” Weeds, 15(1), pp 20-22 (1967)) calculates the expected additive effect of herbicidal mixtures, and for two active ingredients is of the form: Pa+b=Pa+Pb−(PaPb/100)
(§3) wherein Pa+b is the percentage effect of the mixture expected from additive contribution of the individual components:
(§4) Pa is the observed percentage effect of the first active ingredient at the same use rate as in the mixture, and
(§5) Pb is the observed percentage effect of the second active ingredient at the same use rate as in the mixture.

[2] = system: LOLMU, Italian Ryegrass (Lolium multiflorum); assay: as above; format: in vivo; conditions: Rate 62 g a.i./ha, scale 0-100
Procedure: as §1, §2, §3, §4, §5

[3] = system: SETVI, giant foxtail (Setaria faberii); assay: as above; format: in vivo; conditions: Rate 62 g a.i./ha, scale 0-100
Procedure: as §1, §2, §3, §4, §5

[4] = system: ECHCG, barnyardgrass (Echinochloa crus-galli); assay: as above; format: in vivo; conditions: Rate 62 g a.i./ha, scale 0-100
Procedure: as §1, §2, §3, §4, §5

[5] = system: AMBEL, common ragweed (Ambrosia elatior); assay: as above; format: in vivo; conditions: Rate 62 g a.i./ha, scale 0-100
Procedure: as §1, §2, §3, §4, §5

[6] = system: ALOMY, blackgrass (Alopecurus myosuroides); assay: as above; format: in vivo; conditions: Table F3; Post-emergence; Rate 62 g a.i./ha; scale 0-100
Procedure: as §1, §2, §3, §4, §5

[7] = system: GALAP, galium (Galium aparine); assay: as above; format: in vivo; conditions: Table F3; Post-emergence; Rate 62 g a.i./ha; scale 0-100
Procedure: as §1, §2, §3, §4, §5

[8] = system: AMARE, redroot pigweed (Amaranthus retroflexus); assay: as above; format: in vivo; conditions: Rate 62 g a.i./ha, scale 0-100
Procedure: as §1, §2, §3, §4, §5

[9] = system: pigweed (Amaranthus retroflexus); assay: Test A greenhouse herbicide test, pre- and postemergence; format: in vivo; conditions: Amaranthus retroflexus, 240 h, 1000 g ai/ha, 0 to 100 scale
How it was run: (§6)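 Seeds sown in loam–sand blend got a preemergence directed soil spray of compound in non-phytotoxic solvent with surfactant. Postemergence treatment was given at 2–10 cm, one- to two-leaf stage. After ~10 d in greenhouse, injury was rated visually vs untreated controls, 0 (no effect) to 100 (complete control).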

[10] = system: foxtail, giant (giant foxtail, Setaria faberii); assay: as above; format: in vivo; conditions: Setaria faberi, 240 h, 1000 g ai/ha, 0 to 100 scale
How it was run: as §6

[11] = system: barnyardgrass (Echinochloa crus-galli); assay: as above; format: in vivo; conditions: Echinochloa crus-galli, 240 h, 1000 g ai/ha, 0 to 100 scale
How it was run: as §6

[12] = system: crabgrass, large (large crabgrass, Digitaria sanguinalis); assay: as above; format: in vivo; conditions: 240 h, 1000 g ai/ha, 0 to 100 scale
How it was run: as §6

[13] = system: momingglory (Ipomoea spp.); assay: as above; format: in vivo; conditions: 240 h, 1000 g ai/ha, 0 to 100 scale
How it was run: as §6

[14] = system: velvetleaf (Abutilon theophrasti); assay: as above; format: in vivo; conditions: 240 h, 1000 g ai/ha, 0 to 100 scale
How it was run: as §6

[15] = system: wheat (Triticum aestivum); assay: as above; format: in vivo; conditions: Triticum aestivum, 240 h, 1000 g ai/ha, 0 to 100 scale
How it was run: as §6

corn (Zea mays) = assay: as above; format: in vivo; conditions: Zea mays, 240 h, 1000 g ai/ha, 0 to 100 scale
How it was run: as §6

[16] = system: sedge, umbrella (small-flower umbrella sedge, Cyperus difformis); assay: Test B flooded paddy test; format: in vivo; conditions: Cyperus difformis, 360 h; 250 g ai/ha, Flood; visual rating on scale of 0 to 100 where 0 is no effect and 100 is complete control; 13 to 15 d after treatment; read-out: Plant response rating, Sedge, Umbrella
How it was run: (§7)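 Plants at the 2-leaf stage were flooded to 3 cm above soil, and test compounds were applied directly into the paddy water, which was held at that depth throughout. After 13 to 15 d in a greenhouse, injury was rated visually against untreated controls on a 0–100 scale (0 no effect, 100 complete control).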

[17] = system: ducksalad (Heteranthera limosa); assay: Test B flooded paddy test; format: in vivo; conditions: Heteranthera limosa, 360 h; 250 g ai/ha, Flood; visual rating on scale of 0 to 100 where 0 is no effect and 100 is complete control; 13 to 15 d after treatment; read-out: Plant response rating, Ducksalad
How it was run: as §7

[18] = system: barnyardgrass (Echinochloa crus-galli); assay: Test B flooded paddy test; format: in vivo; conditions: Echinochloa crus-galli, 360 h; 250 g ai/ha, Flood; visual rating on scale of 0 to 100 where 0 is no effect and 100 is complete control; 13 to 15 d after treatment; read-out: Plant response rating, Barnyardgrass
How it was run: as §7

rice (Oryza sativa) = assay: Test B flooded paddy test; format: in vivo; conditions: Oryza sativa, 360 h; 250 g ai/ha, Flood; visual rating on scale of 0 to 100 where 0 is no effect and 100 is complete control; 13 to 15 d after treatment; read-out: Plant response rating, Rice
How it was run: as §7

In the case of `CCNc1nc(Cl)nc(NC(C)C)n1` [atrazine], the “KCHSC Obsd.” value ([1]; Pre-emergence) is reported as 100, the “KCHSC Obsd.” value ([1]; Table F3, Post-emergence) is reported as 100 and the “LOLMU Obsd.” value ([2]; Pre-emergence) is reported as 100. The “LOLMU Obsd.” value ([2]; Table F3, Post-emergence) was 15, the “SETVI Obsd.” value ([3]; Pre-emergence) was 5 and the “SETVI Obsd.” value ([3]; Table F3, Post-emergence) was 5. The “ECHCG Obsd.” value ([4]; Pre-emergence) was 0, the “ECHCG Obsd.” value ([4]; Table F3, Post-emergence) was 20 and the “AMBEL Obsd.” value ([5]; Pre-emergence) was 10. The “AMBEL Obsd.” value ([5]; Table F3, Post-emergence) was 10, the “ALOMY Obsd.” value [6] was 60 and the “GALAP Obsd.” value [7] was 50. The “AMARE Obsd.” value ([8]; Pre-emergence) was 85 and the “AMARE Obsd.” value ([8]; Table F3, Post-emergence) was 75.

`Cc1nn(C)c(=O)c(-c2c(C)oc3ccccc23)c1O` [Compound 4, 5-hydroxy-2,6-dimethyl-4-(2-methyl-3-benzofuranyl)-3 (2H)-pyridazinone] gave a melting point of 238 to 240 °C, a pest or weed control at 1000 g/ha ([9]; post-emergence, Postemergence, 0 is no effect, 100 is complete control, read-out: Pigweed plant response rating) of 50% and a pest or weed control at 1000 g/ha ([9]; pre-emergence, Preemergence, 0 no effect, 100 complete control, read-out: Plant response rating, Pigweed) of 70%. For the same compound, the pest or weed control at 1000 g/ha ([10]; post-emergence, Postemergence, 0 is no effect, 100 is complete control, read-out: Foxtail, Giant plant response rating) was 80%, the pest or weed control at 1000 g/ha ([10]; pre-emergence, Preemergence, 0 no effect, 100 complete control, read-out: Plant response rating, Foxtail, Giant) was 80% and the pest or weed control at 1000 g/ha ([11]; post-emergence, Postemergence, 0 is no effect, 100 is complete control, read-out: Barnyardgrass plant response rating) was 70%. The pest or weed control at 1000 g/ha ([11]; pre-emergence, Preemergence, 0 no effect, 100 complete control, read-out: Plant response rating, Barnyardgrass) was 100%, the pest or weed control at 1000 g/ha ([12]; post-emergence, Postemergence, 0 is no effect, 100 is complete control, read-out: Crabgrass, Large plant response rating) was 50% and the pest or weed control at 1000 g/ha ([12]; pre-emergence, Preemergence, 0 no effect, 100 complete control, read-out: Plant response rating, Crabgrass, Large) was 80%. For the same compound, the pest or weed control at 1000 g/ha ([13]; post-emergence, Postemergence, 0 is no effect, 100 is complete control, read-out: Morningglory plant response rating) was 70%, the pest or weed control at 1000 g/ha ([13]; pre-emergence, Preemergence, 0 no effect, 100 complete control, read-out: Plant response rating, Morningglory) was 60% and the pest or weed control at 1000 g/ha ([14]; post-emergence, Postemergence, 0 is no effect, 100 is complete control, read-out: Velvetleaf plant response rating) was 60%. The pest or weed control at 1000 g/ha ([14]; pre-emergence, Preemergence, 0 no effect, 100 complete control, read-out: Plant response rating, Velvetleaf) was 40%, the plant injury at 1000 g/ha ([15]; post-emergence, Postemergence, 0 is no effect, 100 is complete control, read-out: Wheat plant response rating) was 0% and the plant injury at 1000 g/ha ([15]; pre-emergence, Preemergence, 0 no effect, 100 complete control, read-out: Plant response rating, Wheat) was 0%. It also gave a plant injury at 1000 g/ha (corn (Zea mays); post-emergence, Postemergence, 0 is no effect, 100 is complete control, read-out: Corn plant response rating) of 0%, a Corn plant response rating (crop injury, 0 = no effect, 100 = complete kill) at 1000 g/ha (corn (Zea mays); pre-emergence, Preemergence, 0 no effect, 100 complete control) of 10% and a pest or weed control at 250 g/ha [16] of 0%. For the same compound, the pest or weed control at 250 g/ha [17] was 0%, the pest or weed control at 250 g/ha [18] was 0% and the plant injury at 250 g/ha (rice (Oryza sativa)) was 0%.
